Experimental data as given in patent publication US20210070748A1, “INHIBITORS OF BRUTONS TYROSINE KINASE” (Pharmacyclics LLC, priority 2015, published 2021).

Tests used:
SRC = SRC (Homo sapiens, UniProt P12931); assay: Inhibition of a panel of kinases, in vitro HotSpot kinase assay: SRC; type: biochemical; conditions: D-compounds panel data; 1 μM ATP
Protocol: The degree of inhibition of a panel of kinases is determined using the in vitro HotSpot kinase assay (purified enzymes, ^33P-ATP, an appropriate substrate and 1 μM ATP).

JAK3 = molecular target: T1, JAK3 (Homo sapiens, UniProt P52333); assay: Inhibition of a panel of kinases, in vitro HotSpot kinase assay: JAK3; type: biochemical; conditions: D-compounds panel data; 1 μM ATP; read-out: IC50 JAK3
T1 sequence (P52333 1-1124): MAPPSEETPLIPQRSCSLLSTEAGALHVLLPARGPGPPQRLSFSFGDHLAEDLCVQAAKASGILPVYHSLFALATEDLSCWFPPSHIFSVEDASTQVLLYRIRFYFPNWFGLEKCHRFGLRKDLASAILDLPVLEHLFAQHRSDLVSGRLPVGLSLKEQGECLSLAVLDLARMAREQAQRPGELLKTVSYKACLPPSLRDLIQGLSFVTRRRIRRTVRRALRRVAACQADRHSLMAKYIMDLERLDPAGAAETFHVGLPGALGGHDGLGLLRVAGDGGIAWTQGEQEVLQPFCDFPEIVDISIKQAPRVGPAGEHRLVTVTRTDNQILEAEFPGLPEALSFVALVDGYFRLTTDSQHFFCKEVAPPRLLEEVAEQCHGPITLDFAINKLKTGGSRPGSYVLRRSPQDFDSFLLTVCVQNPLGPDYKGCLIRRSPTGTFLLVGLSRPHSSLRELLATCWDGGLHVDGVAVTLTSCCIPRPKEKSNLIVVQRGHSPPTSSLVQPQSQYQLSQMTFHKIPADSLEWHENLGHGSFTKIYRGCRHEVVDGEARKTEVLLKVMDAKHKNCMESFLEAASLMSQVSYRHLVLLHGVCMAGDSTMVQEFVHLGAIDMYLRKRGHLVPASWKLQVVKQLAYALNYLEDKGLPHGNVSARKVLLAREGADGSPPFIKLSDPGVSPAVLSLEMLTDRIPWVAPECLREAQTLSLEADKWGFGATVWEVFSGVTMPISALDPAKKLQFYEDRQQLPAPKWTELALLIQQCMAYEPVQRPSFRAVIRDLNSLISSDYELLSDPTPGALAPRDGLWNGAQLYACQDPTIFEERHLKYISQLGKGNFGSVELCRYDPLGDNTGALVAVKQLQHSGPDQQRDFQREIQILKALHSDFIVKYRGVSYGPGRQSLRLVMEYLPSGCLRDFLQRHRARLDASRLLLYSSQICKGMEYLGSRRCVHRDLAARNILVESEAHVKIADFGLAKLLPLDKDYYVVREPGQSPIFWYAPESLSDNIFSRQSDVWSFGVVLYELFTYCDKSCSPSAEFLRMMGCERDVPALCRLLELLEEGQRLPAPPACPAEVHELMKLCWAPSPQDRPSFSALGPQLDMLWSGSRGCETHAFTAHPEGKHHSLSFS

SRC, sequence (P12931 whole entry): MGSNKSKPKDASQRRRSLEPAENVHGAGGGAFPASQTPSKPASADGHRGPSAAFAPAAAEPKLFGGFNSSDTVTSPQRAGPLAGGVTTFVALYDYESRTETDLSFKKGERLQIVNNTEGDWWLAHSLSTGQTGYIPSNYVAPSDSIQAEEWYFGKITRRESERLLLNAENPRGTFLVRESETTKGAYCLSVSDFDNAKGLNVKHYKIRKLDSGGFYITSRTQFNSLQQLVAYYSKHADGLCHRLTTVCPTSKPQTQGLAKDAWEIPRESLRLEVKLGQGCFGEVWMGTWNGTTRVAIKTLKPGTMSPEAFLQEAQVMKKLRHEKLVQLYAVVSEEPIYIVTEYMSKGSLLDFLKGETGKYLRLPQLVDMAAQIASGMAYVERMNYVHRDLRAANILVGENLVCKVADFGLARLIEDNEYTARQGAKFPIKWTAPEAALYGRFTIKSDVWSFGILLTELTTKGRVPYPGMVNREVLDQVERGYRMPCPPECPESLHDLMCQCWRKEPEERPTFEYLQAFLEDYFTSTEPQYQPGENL

IC50 (SRC) | IC50 (JAK3) | Compound
0.1 to 1 µM | 0.1 to 1 µM | C[C@@H]1[C@H](N2Cc3cc(C4CC4)ccc3C2=O)CCCN1c1cnc(C(N)=O)c(Nc2cnn(C)c2)n1 [Example D-36, 5-[(2R,3R)-3-(5-cyclopropyl-1-oxo-2,3-dihydro-1H-isoindol-2-yl)-2-methylpiperidin-1-yl]-3-[(1-methyl-1H-pyrazol-4-yl)amino]pyrazine-2-carboxamide]
0.1 to 1 µM | 0.1 to 1 µM | Cn1cc(Nc2nc(N3CCC[C@@H](NC(=O)c4ccc(C(C)(C)O)cc4)C3)nnc2C(N)=O)cn1 [Example D-39, 3-[(3R)-3-[4-(2-hydroxypropan-2-yl)benzamido]piperidin-1-yl]-5-[(1-methyl-1H-pyrazol-4-yl)amino]-1,2,4-triazine-6-carboxamide]
0.01 to 0.1 µM | 0.1 to 1 µM | C[C@@H]1[C@H](NC(=O)c2ccc(C(C)(C)O)nc2)CCCN1c1cnc(C(N)=O)c(Nc2cnn(C)c2)n1 [Example D-40, 5-[(2R,3R)-3-[6-(2-hydroxypropan-2-yl)pyridine-3-amido]-2-methylpiperidin-1-yl]-3-[(1-methyl-1H-pyrazol-4-yl)amino]pyrazine-2-carboxamide]
0.01 to 0.1 µM | 0.1 to 1 µM | C[C@@H]1[C@H](NC(=O)c2ccc(C(C)(C)O)nc2)CCCN1c1nnc(C(N)=O)c(Nc2cnn(C)c2)n1 [Example D-41, 3-[(2R,3R)-3-[6-(2-hydroxypropan-2-yl)pyridine-3-amido]-2-methylpiperidin-1-yl]-5-[(1-methyl-1H-pyrazol-4-yl)amino]-1,2,4-triazine-6-carboxamide]
> 10 µM | > 10 µM | C[C@@H]1[C@H](NC(=O)c2ccc(C3CC3)cc2)CCCN1c1cnc(C(N)=O)c(Nc2ccc(OC(F)(F)F)cc2)n1 [Example D-42, 5-[(2R,3R)-3-(4-cyclopropylbenzamido)-2-methylpiperidin-1-yl]-3-{[4-(trifluoromethoxy)phenyl]amino}pyrazine-2-carboxamide]
1 to 10 µM | 1 to 10 µM | Cn1cc(Nc2nc(N3CCC[C@@H]4[C@H]3CCN4C(=O)c3ccc(C4CC4)cc3)cnc2C(N)=O)cn1 [Example D-44, 5-[(3aR,7aR)-1-(4-cyclopropylbenzoyl)-octahydro-1H-pyrrolo[3,2-b]pyridin-4-yl]-3-[(1-methyl-1H-pyrazol-4-yl)amino]pyrazine-2-carboxamide]
1 to 10 µM | 1 to 10 µM | Cn1cc(Nc2nc(N3CCC[C@H]4[C@@H]3CCN4C(=O)c3ccc(C4CC4)cc3)cnc2C(N)=O)cn1 [Example D-45, 5-[(3aS,7aS)-1-(4-cyclopropylbenzoyl)-octahydro-1H-pyrrolo[3,2-b]pyridin-4-yl]-3-[(1-methyl-1H-pyrazol-4-yl)amino]pyrazine-2-carboxamide]
0.1 to 1 µM | 1 to 10 µM | Cn1cc(Nc2nc(N3CCC[C@@H]4[C@H]3CCCN4C(=O)c3ccc(C4CC4)cc3)cnc2C(N)=O)cn1 [Example D-46, 5-I[(4aR,8aR)-5-(4-cyclopropylbenzoyl)-decahydro-1,5-naphthyridin-1-yl]-3-[(1-methyl-1H-pyrazol-4-yl)amino]pyrazine-2-carboxamide]
1 to 10 µM | > 10 µM | Cn1cc(Nc2nc(N3CCC[C@H]4[C@@H]3CCCN4C(=O)c3ccc(C4CC4)cc3)cnc2C(N)=O)cn1 [Example D-47, 5-[(4aS,8aS)-5-(4-cyclopropylbenzoyl)-decahydro-1,5-naphthyridin-1-yl]-3-[(1-methyl-1H-pyrazol-4-yl)amino]pyrazine-2-carboxamide]

Compound | IC50 (SRC) | IC50 (JAK3)
C[C@@H]1[C@H](N2CCN(C)C2=O)CCCN1c1cnc(C(N)=O)c(Nc2ccc(C3(C)CCN(C4CC4)CC3)cc2)n1 [Example D-38, 3-{[4-(1-cyclopropyl-4-methylpiperidin-4-yl)phenyl]amino}-5-[(2R,3R)-2-methyl-3-(3-methyl-2-oxoimidazolidin-1-yl)piperidin-1-yl]pyrazine-2-carboxamide] | 0.01 to 0.1 µM | 0.01 to 0.1 µM
